The Kinase Knowledgebase extract (Sharma et al. 2016)

Target: PIK3CB;PIK3CG;PIK3CD;PIK3CA (human) (UniProt P48736)
Assay: Enzyme Assay

Row | Structure (SMILES) | IC50 [nM]
1 | O=C(c1nn([C@H]2CCCN(CCN3CCOCC3)C2)c2c1CS(=O)(=O)c1c(F)cccc1-2)N1CCOCC1 | 16
2 | O=C(c1nn(C2CCCN(CC3CCOC3)C2)c2c1CS(=O)(=O)c1ccccc1-2)N1CCOCC1 (configuration not stated) | 98
3 | O=C(c1nn(C2CCN(CCO)CC2)c2c1CS(=O)(=O)c1ccccc1-2)N1CCOCC1 | 1760
4 | O=C(c1nn([C@H]2CCCN(CC3CCOCC3)C2)c2c1CS(=O)(=O)c1ncccc1-2)N1CCOCC1 | 13
5 | O=C(c1nn([C@H]2CCCN(CCC3CCOCC3)C2)c2c1CS(=O)(=O)c1ccccc1-2)N1CCOCC1 | 34
6 | CN(C)CC(C)(C)c1ccc(-n2nc(C(=O)N3CCOCC3)c3c2-c2ccccc2S(=O)(=O)C3)cc1 | 159
7 | CCCn1nc(C(=O)N2CCOCC2)c2c1-c1ccccc1S(=O)(=O)C2 | 641
8 | O=C(CCN1CCC[C@H](n2nc(C(=O)N3CCOCC3)c3c2-c2ccccc2S(=O)(=O)C3)C1)N1CC(F)(F)C1 | 39
9 | CN(C)CCn1nc(C(=O)N2CCOCC2)c2c1-c1ccccc1S(=O)(=O)C2 | 1500
10 | O=C(c1nn(CCc2ccccc2)c2c1CS(=O)(=O)c1ccccc1-2)N1CCOCC1 | 1440
11 | O=C(c1nn(C2CCCCC2)c2c1CS(=O)(=O)c1ccccc1-2)N1CCOCC1 | 136
12 | O=C(c1nn(-c2ccc(CN3CC(F)C3)cc2)c2c1CS(=O)(=O)c1ccccc1-2)N1CCOCC1 | 229
13 | O=C(c1nn([C@H]2CCCN(CCN3CCOCC3)C2)c2c1CS(=O)(=O)c1cc(F)ccc1-2)N1CCOCC1 | 14
14 | O=C(c1nn(-c2ccccc2)c2c1C(CC1CC1)S(=O)(=O)c1ccccc1-2)N1CCOCC1 (configuration not stated) | 3900
15 | CC(C)(C)OC(=O)N1CCCC(n2nc(C(=O)N3CCOCC3)c3c2-c2ccccc2S(=O)(=O)C3)CC1 (configuration not stated) | 824
16 | Cc1nnc(-c2cccc(-n3nc(C(=O)N4CCOCC4)c4c3-c3ccccc3S(=O)(=O)C4)c2)o1 | 1200
17 | COCCN(CCOC)CCN1CCC[C@H](n2nc(C(=O)N3CCOCC3)c3c2-c2ccccc2S(=O)(=O)C3)C1 | 113
18 | COCCOCCN1CCCC(n2nc(C(=O)N3CCOCC3)c3c2-c2ccccc2S(=O)(=O)C3)C1 (configuration not stated) | 635
19 | O=C(c1nn(C2CCCN(CCN3CC(F)(F)C3)C2)c2c1CS(=O)(=O)c1ccccc1-2)N1CCOCC1 (configuration not stated) | 36
20 | O=C(c1nn(C2CCNCC2)c2c1CS(=O)(=O)c1ccccc1-2)N1CCOCC1 | 1520
21 | O=C(c1nn(-c2ccc(N3CCOCC3)cc2)c2c1CS(=O)(=O)c1ccccc1-2)N1CCOCC1 | 3940

Row | Structure (SMILES) | IC50 [nM]
22 | O=C(c1nn(-c2cccc(F)c2)c2c1CS(=O)(=O)c1ccccc1-2)N1CCOCC1 | 739
23 | O=C(c1nn([C@H]2CCCN(CCN3CCCCC3)C2)c2c1CS(=O)(=O)c1ccccc1-2)N1CCOCC1 | 15
24 | O=C(c1nn(C2CCCN(CCn3ccnc3)C2)c2c1CS(=O)(=O)c1ccccc1-2)N1CCOCC1 (configuration not stated) | 52
25 | CN1CCC(OCCN2CCC[C@H](n3nc(C(=O)N4CCOCC4)c4c3-c3ccccc3S(=O)(=O)C4)C2)CC1 | 20
26 | COc1cccc2c1S(=O)(=O)Cc1c(C(=O)N3CCOCC3)nn([C@H]3CCCN(CCN4CC(F)C4)C3)c1-2 | 62
27 | CS(=O)(=O)C1CCC(n2nc(C(=O)N3CCOCC3)c3c2-c2ccccc2S(=O)(=O)C3)CC1 (configuration not stated) | 2100
28 | COC1CCN(Cc2cccc(-n3nc(C(=O)N4CCOCC4)c4c3-c3ccccc3S(=O)(=O)C4)c2)CC1 | 240
29 | O=C(c1nn([C@H]2CCN(C3CCOCC3)C2)c2c1CS(=O)(=O)c1ccccc1-2)N1CCOCC1 | 1440
30 | COCCN1CCC[C@H](n2nc(C(=O)N3CCOCC3)c3c2-c2cccc(F)c2S(=O)(=O)C3)C1 | 31
31 | O=C(c1nn(N2CCOCC2)c2c1C(F)S(=O)(=O)c1ccccc1-2)N1CCOCC1 (configuration not stated) | 9800
32 | O=C(c1nn(-c2cccc(CN3CC(F)(F)C3)c2)c2c1CS(=O)(=O)c1ccccc1-2)N1CCOCC1 | 643
33 | O=C(c1nn(-c2ccc(CN3CCC(F)CC3)cc2)c2c1CS(=O)(=O)c1ccccc1-2)N1CCOCC1 | 247
34 | COCCn1nc(C(=O)N2CCOCC2)c2c1-c1ccccc1S(=O)(=O)C2 | 1290
35 | CCOc1ccc2c(c1)S(=O)(=O)Cc1c(C(=O)N3CCOCC3)nn(-c3ccc(CN4CCOCC4)cc3)c1-2 | 250
36 | CC(=O)Nc1ccc2c(c1)-c1c(c(C(=O)N3CCOCC3)nn1-c1ccccc1)CS2(=O)=O | 876
37 | O=C(c1nn(-c2ccc(CN3CCOCC3)cc2)c2c1CS(=O)(=O)c1cc(F)ccc1-2)N1CCOCC1 | 202
38 | O=C(c1nn([C@@H]2CCCN(CCn3ccnc3)C2)c2c1CS(=O)(=O)c1ccccc1-2)N1CCOCC1 | 444
39 | O=C(c1nn(-c2cccc(N3CCOCC3)c2)c2c1CS(=O)(=O)c1ccccc1-2)N1CCOCC1 | 673
40 | O=C(c1nn(C2CCCC(C(=O)N3CCOCC3)C2)c2c1CS(=O)(=O)c1ccccc1-2)N1CCOCC1 (configuration not stated) | 420
41 | O=C(c1nn(C2CN3CCC2CC3)c2c1CS(=O)(=O)c1ccccc1-2)N1CCOCC1 (configuration not stated) | 10200
42 | O=C(c1nn(C2CCN(CCN3CCOCC3)CC2)c2c1CS(=O)(=O)c1ccccc1-2)N1CCOCC1 | 369

Row | Structure (SMILES) | IC50 [nM]
43 | O=C(c1nn(C2CCCN(CCC3CCOCC3)C2)c2c1CS(=O)(=O)c1ncccc1-2)N1CCOCC1 (configuration not stated) | 61
44 | COC1CN(Cc2ccc(-n3nc(C(=O)N4CCOCC4)c4c3-c3ccccc3S(=O)(=O)C4)cc2)C1 | 165
45 | O=C(c1nn([C@@H]2CCCN(CCC3CCOCC3)C2)c2c1CS(=O)(=O)c1c(F)cccc1-2)N1CCOCC1 | 1920
46 | CC(=O)N1CCC(Cn2nc(C(=O)N3CCOCC3)c3c2-c2ccccc2S(=O)(=O)C3)CC1 | 2820
47 | COCCNc1ccc2c(c1)-c1c(c(C(=O)N3CCOCC3)nn1C1CCCCC1)CS2(=O)=O | 1390
48 | CCc1noc(Cn2nc(C(=O)N3CCOCC3)c3c2-c2ccccc2S(=O)(=O)C3)n1 | 1920
49 | CC(C)CCN1CCCC(n2nc(C(=O)N3CCOCC3)c3c2-c2ccccc2S(=O)(=O)C3)C1 (configuration not stated) | 138
50 | CN1CCN(Cc2ccc(-n3nc(C(=O)N4CCOCC4)c4c3-c3ccccc3S(=O)(=O)C4)cn2)CC1 | 335
51 | O=C(c1nn(-c2ccccc2)c2c1CS(=O)(=O)c1nccn1-2)N1CCOCC1 | 477
52 | O=C(c1nn([C@H]2CCCN(CCN3CCC(O)CC3)C2)c2c1CS(=O)(=O)c1ccccc1-2)N1CCOCC1 | 18
53 | CS(=O)(=O)C1CCN(Cc2ccc(-n3nc(C(=O)N4CCOCC4)c4c3-c3ccccc3S(=O)(=O)C4)cc2)C1 (configuration not stated) | 920
54 | CC1CN(C(=O)c2nn(-c3ccccc3)c3c2CS(=O)(=O)c2ccccc2-3)CCO1 (configuration not stated) | 2160
55 | COc1cccc2c1S(=O)(=O)Cc1c(C(=O)N3CCOCC3)nn([C@H]3CCCN(CCN4CCOCC4)C3)c1-2 | 59
56 | O=C(c1nn(CC2CCCCC2)c2c1CS(=O)(=O)c1ccccc1-2)N1CCOCC1 | 509
57 | O=C(c1nn(-c2ccccc2)c2c1CS(=O)(=O)c1ccsc1-2)N1CCOCC1 | 643
58 | O=C(c1nn(-c2cccc(OCCn3ccnc3)c2)c2c1CS(=O)(=O)c1ccccc1-2)N1CCOCC1 | 179
59 | CN(C)c1cccc(-n2nc(C(=O)N3CCOCC3)c3c2-c2ccccc2S(=O)(=O)C3)c1 | 4720
60 | O=C(c1nn([C@H]2CCN(CCC3CCOCC3)C2)c2c1CS(=O)(=O)c1c(F)cccc1-2)N1CCOCC1 | 92
61 | CC(C)(C)CCN1CCCC(n2nc(C(=O)N3CCOCC3)c3c2-c2ccccc2S(=O)(=O)C3)C1 (configuration not stated) | 587
62 | COCCNCc1ccc(-n2nc(C(=O)N3CCOCC3)c3c2-c2ccccc2S(=O)(=O)C3)cc1 | 164
